Measurements taken from article PMC6151395, “COX Inhibition Profile and Molecular Docking Studies of Some 2-(Trimethoxyphenyl)-Thiazoles” (Molecules : A Journal of Synthetic Chemistry and Natural …, 2017).
Several values for one entry are separate records, joined by “and”; a condition that tells them apart may be missing. Identical values can stand only once.

Key:
human recombinant COX-2 = molecular target: T1, human recombinant COX-2 (Homo sapiens, UniProt P35354); assay: biochemical; type: biochemical; details: for Selectivity index SI = IC50 COX-1/IC50 COX-2: ratio of ovine COX-1 to human recombinant COX-2 IC50
T1 construct: purchased Cayman Chemical 560131
T1 sequence (P35354 18-604): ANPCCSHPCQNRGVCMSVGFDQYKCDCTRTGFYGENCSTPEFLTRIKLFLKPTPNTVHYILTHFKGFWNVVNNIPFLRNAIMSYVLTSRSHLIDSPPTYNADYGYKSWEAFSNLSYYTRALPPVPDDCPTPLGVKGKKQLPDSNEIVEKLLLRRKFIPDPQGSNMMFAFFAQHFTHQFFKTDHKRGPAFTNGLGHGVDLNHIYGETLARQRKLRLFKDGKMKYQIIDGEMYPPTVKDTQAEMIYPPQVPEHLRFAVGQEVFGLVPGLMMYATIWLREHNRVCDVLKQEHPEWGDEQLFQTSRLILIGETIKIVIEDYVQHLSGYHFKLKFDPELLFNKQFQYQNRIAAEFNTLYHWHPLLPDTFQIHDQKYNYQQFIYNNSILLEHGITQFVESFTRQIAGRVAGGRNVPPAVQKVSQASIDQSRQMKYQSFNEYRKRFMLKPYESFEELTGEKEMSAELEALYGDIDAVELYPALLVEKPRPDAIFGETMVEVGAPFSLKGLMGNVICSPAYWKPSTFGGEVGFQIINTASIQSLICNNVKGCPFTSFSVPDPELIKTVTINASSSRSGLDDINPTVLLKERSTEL
Procedure: (§1) The COX-1/2 inhibitory activities of the tested compounds were evaluated using the enzyme immunoassay (EIA) method against ovine COX-1 and human recombinant COX-2. The selectivity index was calculated as the ratio IC50 COX-1/IC50 COX-2.
(§2) The kit utilizes an enzyme immunoassay (EIA) in order to quantify the prostanoid product resulted from COX catalyzed reaction. The inhibitory potential of our molecules was tested against the ovine COX-1 and human recombinant COX-2 enzymes. The COX inhibition reaction was performed by a 10 min incubation at 37 °C in the presence of reaction buffer, heme, COX-1 or COX-2 enzymes, and the tested inhibitor. The reaction was initiated by adding arachidonic acid and incubating at 37 °C for 2 min. Enzymatic catalysis was stopped by adding HCl. Stannous chloride was subsequently added to perform the reduction of COX-derived prostaglandin H2 (PGH2) produced in the reaction of COX leading to prostaglandin F2α (PGF2α). PGF2α was then quantified using the EIA kit. Prostanoid containing solutions obtained from the COX reaction were then diluted and transferred to plates that were pre-coated with monoclonal anti-rabbit IgG antibodies produced in mouse. They were incubated overnight in the presence of PG-acetylcholinesterase (AchE) conjugate and specific PG antiserum. The reaction mixture was then removed from the wells, the plates were washed to remove all unbound reagents and Ellman’s reagent (which contains the AchE substrate) was then added for plate development. […] The intensity of the color is inversely proportional to the amount of PG found in the sample. The PG quantity was determined using a PG standard curve generated on the same plate. All determinations were performed according to the manufacturer’s instructions and similar with other literature reports. The IC50 values were calculated using a sigmoidal concentration-inhibition response curve (duplicate determinations). Every compound was assayed in the COX reaction on a range of concentrations from 0.03 μM to 300 µM in two distinct determinations. Each COX reaction sample was then EIA assayed at two dilutions and each dilution was tested in duplicate. […] Using IC50 values, the selectivity index (SI) was calculated as the ratio IC50COX-1/IC50COX-2.

ovine COX-1 = molecular target: T2, ovine COX-1 (Ovis aries, UniProt P05979); assay: biochemical; type: biochemical; details: EIA, sigmoidal concentration-inhibition curves, concentrations 0.03 μM to 300 µM
T2 construct: purchased Cayman Chemical 560131
T2 sequence (P05979 25-600): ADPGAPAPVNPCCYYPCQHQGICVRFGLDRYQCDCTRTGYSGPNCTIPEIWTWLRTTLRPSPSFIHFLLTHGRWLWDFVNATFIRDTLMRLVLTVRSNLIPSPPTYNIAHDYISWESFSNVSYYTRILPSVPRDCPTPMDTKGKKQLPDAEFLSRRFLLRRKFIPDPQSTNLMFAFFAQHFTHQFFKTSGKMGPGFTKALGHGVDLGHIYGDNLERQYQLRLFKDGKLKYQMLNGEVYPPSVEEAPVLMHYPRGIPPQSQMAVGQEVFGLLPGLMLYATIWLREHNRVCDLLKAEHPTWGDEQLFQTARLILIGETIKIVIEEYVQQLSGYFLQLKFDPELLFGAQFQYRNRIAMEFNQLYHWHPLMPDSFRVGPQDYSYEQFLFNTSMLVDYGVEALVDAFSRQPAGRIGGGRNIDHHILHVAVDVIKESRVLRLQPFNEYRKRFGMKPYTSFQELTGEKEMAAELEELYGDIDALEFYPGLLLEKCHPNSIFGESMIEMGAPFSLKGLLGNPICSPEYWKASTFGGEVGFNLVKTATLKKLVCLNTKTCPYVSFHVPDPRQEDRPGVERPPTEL
Procedure: as §1, §2

[1] = set-up: method as in earlier work; details: induced acute inflammation experimental model; cited from earlier work
[2] = human recombinant COX-2, EIA, sigmoidal concentration-inhibition curves, concentrations 0.03 μM to 300 µM

Row | SMILES | IC50 (human recombinant COX-2; [2]) [µM] | Selectivity index SI = IC50 COX-1/IC50 COX-2 (human recombinant COX-2) | IC50 (ovine COX-1) [µM] | IC50 COX-1 (ovine COX-1) | in vivo anti-inflammatory effect [1] | IC50 COX-2 (human recombinant COX-2; [2])
1 | CCOC(=O)Cc1csc(-c2cc(OC)c(OC)c(OC)c2)n1 [A13] | 229 | 0.47 | 109 |  |  | 
2 | COc1ccc(-c2csc(-c3cc(OC)c(OC)c(OC)c3)n2)cc1 [A4] | 75 | 0.67 | 50.4 | potent |  | 
3 | COc1cc(-c2nc(-c3cccc4ccccc34)cs2)cc(OC)c1OC [A6] | 28.9 | 0.93 | 26.9 |  |  | 
4 | COc1cc(-c2nc(-c3ccc([N+](=O)[O-])cc3)cs2)cc(OC)c1OC [A3] | 25.5 | 9.242 and 9.24 | 236 |  | efficient | 
5 | COc1cc(-c2nc(-c3ccccc3)cs2)cc(OC)c1OC [A2] | 23.3 | 1.48 | 34.5 | potent | lacked the in vivo effect | 
6 | COc1cc(-c2nc(-c3ccc(Cl)cc3)cs2)cc(OC)c1OC [A8] | 25.6 | 1.22 | 31.5 | potent | efficient | 
7 | COc1cc(-c2nc(-c3sc(-c4ccccc4)nc3C)cs2)cc(OC)c1OC [A9] | 70.9 | 1.17 | 83.2 |  |  | 
8 | COc1cc(-c2nc(-c3ccc(C(N)=O)c(O)c3)cs2)cc(OC)c1OC [A7] | 106 | 0.51 | 54.7 | potent |  | 
9 | CCOC(=O)c1sc(-c2cc(OC)c(OC)c(OC)c2)nc1C [A12] | 273 | 1.5 |  |  |  | 
10 | COc1cc(-c2nc(-c3ccc(C#N)cc3)cs2)cc(OC)c1OC [A5] | 148 | 0.49 | 73.3 |  |  | 
11 | COc1cc(-c2nc(-c3ccccc3)c(C)s2)cc(OC)c1OC [A1] | > 300 |  | 140 |  |  | practically inactive
12 | COc1cc(-c2nc(CCl)cs2)cc(OC)c1OC [A10] | 107 | 5.69 |  |  |  | 
13 | COc1cc(-c2nc(C)c(C(C)=O)s2)cc(OC)c1OC [A11] | 216 | 0.35 | 76 |  |  | 
